Converted amounts (≈) assume the structure as drawn. Marks after values point to notes of the source that are not given here.
What was measured:
APEC O1 = assay: MIC and MBC determination in M63 media; assay type: cell-based; settings: Escherichia coli
APEC O2 = assay: MIC and MBC determination in M63 media; assay type: cell-based; settings: Escherichia coli
APEC O15 = assay: MIC and MBC determination in M63 media; assay type: cell-based; settings: Escherichia coli
APEC O115 = assay: MIC and MBC determination in M63 media; assay type: cell-based; settings: Escherichia coli
APEC O109 = assay: MIC and MBC determination in M63 media; assay type: cell-based; settings: Escherichia coli
APEC O78-53 = assay: MIC and MBC determination in M63 media; assay type: cell-based; settings: Escherichia coli; APEC O78-53, M63 media
In short: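 Broth microdilution, M63, inoculum OD600 0.05; 1 µL compound into 100 µL culture. Read: OD600 on plate reader.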

APEC O1-63 = assay: MIC and MBC determination in M63 media; assay type: cell-based; settings: Escherichia coli; APEC O1-63, M63 media
[1] = test system: biofilm embedded APEC O78; assay: MBEC High-throughput (HTP) assay; assay type: cell-based, Escherichia coli; settings: 18 h challenge in M63 media
APEC O78 = assay: Loss of 260/280 nm absorbing materials assay; assay type: cell-based, Escherichia coli; settings: 2X MBC, 1 h
Description: Membrane permeability assays (crystal violet (CV) uptake and loss of 260/280 nm absorbing materials) were conducted as described previously. […] CV uptake was measured using the formula: (OD DMSO − OD SM/OD DMSO × 100). Two independent experiments in duplicates were conducted.

[2] = test system: intracellular APEC O1 in HD11 cells; assay: Intracellular survival assay; assay type: cell-based, Escherichia coli
In short: (§1)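 Viable intracellular CFU, enumerated on LB agar after 0.1% Triton X-100 lysis, were compared between small-molecule-treated and 1% DMSO-treated wells. Host cells had been infected at MOI 10 with mid-log APEC for 1 h (HD11, THP-1) or 3 h (Caco-2).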

[3] = test system: intracellular APEC O1 in THP-1 cells; assay: Intracellular survival assay; assay type: cell-based, Escherichia coli
In short: as §1

[4] = test system: intracellular APEC O2 in Caco-2 cells; assay: Intracellular survival assay; assay type: cell-based, Escherichia coli
In short: as §1

[5] = test system: intracellular APEC O2 in HD11 cells; assay: Intracellular survival assay; assay type: cell-based, Escherichia coli
In short: as §1

[6] = test system: intracellular APEC O2 in THP-1 cells; assay: Intracellular survival assay; assay type: cell-based, Escherichia coli
In short: as §1

[7] = test system: intracellular APEC O78 in HD11 cells; assay: Intracellular survival assay; assay type: cell-based, Escherichia coli
In short: as §1

[8] = test system: intracellular APEC O78 in THP-1 cells; assay: Intracellular survival assay; assay type: cell-based, Escherichia coli
In short: as §1

[9] = test system: intracellular APEC O78, O2, and O1 in infected Caco-2, HD11, and THP1 cells; assay: Intracellular survival assay, statements over all serotypes and cells; assay type: cell-based, Escherichia coli; settings: Escherichia coli, 6 h, O78, O2 and O1; Caco-2, HD11, THP-1; 6 h; read-out: concentration clearing intracellular APEC
In short: as §1

COc1cc(CNCCc2ccc(C)cc2)ccc1OCC(O)CN1CCCC1 (stereo not shown) [SM3] was tested, and the MBC (APEC O1) was 200 µM (≈ 79.7 µg/mL), the MIC (APEC O1) was 100 µM (≈ 39.9 µg/mL) and the MBC (APEC O2) was 200 µM (≈ 79.7 µg/mL). For the same compound, the MIC (APEC O2) was 100 µM (≈ 39.9 µg/mL), the MBC (APEC O15) was 100 µM (≈ 39.9 µg/mL) and the MIC (APEC O15) was 100 µM (≈ 39.9 µg/mL). The MBC (APEC O115) was 100 µM (≈ 39.9 µg/mL), the MIC (APEC O115) was 100 µM (≈ 39.9 µg/mL) and the MBC (APEC O109) was 200 µM (≈ 79.7 µg/mL). For the same compound, the MIC (APEC O109) was 100 µM (≈ 39.9 µg/mL), the MBC (APEC O78-53) was 200 µM (≈ 79.7 µg/mL) and the MIC (APEC O78-53) was 100 µM (≈ 39.9 µg/mL). The MBC (APEC O1-63) was 200 µM (≈ 79.7 µg/mL), the MIC (APEC O1-63) was 200 µM (≈ 79.7 µg/mL) and the “MBEC as multiple of MIC (superscript)” value [1] was “b (1X MIC)”. For the same compound, the “280 nm absorbing materials in supernatant compared with DMSO” value (APEC O78) was “significantly (P < 0.05, Student’s t-test) increased”, the “Absorbance 280 nm of treated supernatant” value (APEC O78; DMSO 2.58, superscript a P < 0.05 vs DMSO) was 2.84^a and the “Absorbance 260 nm of treated supernatant” value (APEC O78; DMSO 3.77, superscript a P < 0.05 vs DMSO) was 3.77. For the same compound, the minimal effective concentration ([2]; Escherichia coli, O1, HD11, 6 h treatment, read-out: SMs intracellular APEC clearance concentration) was 200 µM, the “concentration at which the SM significantly (P < 0.01) reduced intracellular APEC (superscript of t-statistic)” value ([2]; O1, HD11, 6 h) was “a (0.5X MIC)” and the minimal effective concentration ([3]; Escherichia coli, O1, THP-1, 6 h treatment, read-out: SMs intracellular APEC clearance concentration) was 200 µM. For the same compound, the “intracellular APEC clearance concentration as multiple of MIC (superscript)” value ([3]; O1, THP-1) was “b (2X MIC)”, the “concentration at which the SM significantly (P < 0.01) reduced intracellular APEC (superscript of t-statistic)” value ([3]; O1, THP-1, 6 h) was “a (0.5X MIC)” and the minimal effective concentration ([4]; Escherichia coli, O2, Caco-2, 6 h treatment, read-out: SMs intracellular APEC clearance concentration) was over 200 µM. The “concentration at which the SM significantly (P < 0.01) reduced intracellular APEC (superscript of t-statistic)” value ([4]; O2, Caco-2, 6 h) was “b (1X MIC)”, the minimal effective concentration ([5]; Escherichia coli, O2, HD11, 6 h treatment, read-out: SMs intracellular APEC clearance concentration) was 200 µM and the “intracellular APEC clearance concentration as multiple of MIC (superscript)” value ([5]; O2, HD11) was “b (2X MIC)”. For the same compound, the “concentration at which the SM significantly (P < 0.01) reduced intracellular APEC (superscript of t-statistic)” value ([5]; O2, HD11, 6 h) was “a (0.5X MIC)”, the minimal effective concentration ([6]; Escherichia coli, O2, THP-1, 6 h treatment, read-out: SMs intracellular APEC clearance concentration) was 100 µM and the “concentration at which the SM significantly (P < 0.01) reduced intracellular APEC (superscript of t-statistic)” value ([6]; O2, THP-1, 6 h) was “a (0.5X MIC)”. For the same compound, the minimal effective concentration ([7]; Escherichia coli, O78, HD11, 6 h treatment, read-out: SMs intracellular APEC clearance concentration) was 100 µM, the “intracellular APEC clearance concentration as multiple of MIC (superscript)” value ([7]; O78, HD11) was “a (1X MIC)” and the “concentration at which the SM significantly (P < 0.01) reduced intracellular APEC (superscript of t-statistic)” value ([7]; O78, HD11, 6 h) was “a (0.5X MIC)”. The minimal effective concentration ([8]; Escherichia coli, O78, THP-1, 6 h treatment, read-out: SMs intracellular APEC clearance concentration) was 100 µM, the “intracellular APEC clearance concentration as multiple of MIC (superscript)” value ([8]; O78, THP-1) was “a (1X MIC)” and the “concentration at which the SM significantly (P < 0.01) reduced intracellular APEC (superscript of t-statistic)” value ([8]; O78, THP-1, 6 h) was “a (0.5X MIC)”. The minimal effective concentration [9] was at least 100 µM.

Reference: article PMC6193035, “Novel small molecules affecting cell membrane as potential therapeutics for avian pathogenic Escherichia coli” (Scientific Reports, 2018)
